The source of these data is patent US20090123501A1, “INHIBITION OF THE SH2-DOMAIN CONTAINING PROTEIN TYR-PHOSPHATASE, SHP-1, TO ENHANCE VACCINES” (Baylor College of Medicine, priority 2007, published 2009).

In one assay the test system is AP-1 signaling. Put plainly: AP-1-dependent secreted alkaline phosphatase reporter in RAW cells. The class given is cell-based, murine. As to conditions: transient transfection, IFNγ or LPS stimulation. On the procedure: Function of the mutant and wt SHP-1 constructs was tested in RAW cells by transient transfection of SHP-1 vectors along with a reporter construct expressing a secreted alkaline phosphatase driven by either an NFκB or AP-1 dependent promoter. NFκB and AP-1 are major transcription factors stimulated by toll-like receptor (TLR) and cytokine signaling in immune system cells, and represent likely pathways of SHP-1 inhibition on cellular activation. Cells were transfected with the appropriate construct, reporter and then stimulated with interferon-γ (IFNγ) or bacterial lipopolysaccharide (LPS) as ligands for cytokine and TLR receptors respectively.

For assay [1], the target named is T1, H-2D^b (Mus musculus, UniProt P01899).
T1 construct: lower relative expression of H-2D^b on RMA-S cells compared to H-2K^b; endogenous in cells; host or cells: RMA-S
T1 sequence (P01899 25-362): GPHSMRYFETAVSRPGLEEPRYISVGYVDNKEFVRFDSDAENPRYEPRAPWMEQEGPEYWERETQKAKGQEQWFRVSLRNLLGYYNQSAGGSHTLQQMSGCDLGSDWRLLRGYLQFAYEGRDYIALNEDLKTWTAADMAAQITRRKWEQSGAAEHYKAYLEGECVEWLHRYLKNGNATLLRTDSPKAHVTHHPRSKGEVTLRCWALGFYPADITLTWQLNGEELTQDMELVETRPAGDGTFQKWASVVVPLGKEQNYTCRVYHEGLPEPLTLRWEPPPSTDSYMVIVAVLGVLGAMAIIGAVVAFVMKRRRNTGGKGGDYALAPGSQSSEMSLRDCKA
T1 sequence (P01887 21-119 partner): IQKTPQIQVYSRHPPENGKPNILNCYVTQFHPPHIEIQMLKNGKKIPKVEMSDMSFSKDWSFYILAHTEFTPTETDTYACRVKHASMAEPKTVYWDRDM
Nature of the assay: MHC class I surface stabilization assay on RMA-S cells, H-2Db. The class given is binding. As to conditions: RMA-S cells pulsed with peptide overnight, flow cytometry. As to the method:
10^6 RMA-S cells were incubated overnight at 37° C. with each of the five predicted at the concentrations indicated. Cells were stained with antibodies for H-2K^b (Y-3; ATCC-HB176) or H-2D^b (28-14-8S; ATCC-HB27) followed by a goat anti-mouse-FITC second step and MHC class I surface expression was analyzed by flow cytometry. Specific MFI is the mean fluorescent intensity of the sample-mean fluorescent intensity of goat anti-mouse-FITC second step alone. Error bars represent the standard deviation of triplicate measurements.
(§1) The binding affinity of the five predicted peptides was tested. In a surface stabilization assay using the TAP1 deficient cell line RMA-S. RMA-S cells were pulsed with peptide, at the indicated concentrations, and incubated overnight. Cells were stained with antibodies for H-2K^b (Y-3; ATCC-HB176) or H-2D^b (28-14-8S; ATCC-HB27) followed by a fluorescent-labeled secondary antibody and MHC class I surface expression was analyzed by flow cytometry.
(In general: A flow cytometer gives signals particle by particle.)

In a further assay the test system is total splenocytes. Nature of the assay: T cell subsets in total splenocytes 7 days after DC vaccination, flow cytometry. As to conditions: by peptide, viral treatments pooled, day 7, vs no treatment control. The class given is in vivo, C57BL/6 mice. As to the method:
To determine the effect of SHP-1 inhibition on the initiation of T cell responses, BMDCs were cultured and CD11c^+ MACS purified as described above. […] Following peptide loading DCs were left untreated or transduced with one of 3 different adenoviral vectors: 1) Ad5-SHP-1-shRNA; 2) Ad5-scrambled-shRNA; or 3) Ad5-CMV-empty, an adenovirus carrying a CMV promoter expression vector but no insert. […] Using all combinations of peptide and virus treatment yielded 9 experimental vaccines and one no vaccine control. Vaccines (2×10^6 DCs) were injected i.p. into wt C57BL/6 mice. Seven days following vaccination mice were sacrificed and total splenocytes were analyzed by multi-color flow cytometry for the expression of several T cell subsets. CD3^+ CD8^+IFNγ^+ cells were characterized as CTL effectors, CD3^+ CD4^+IFNγ^+ cells were characterized as Th1 helper T cells, and CD4^+ FOXP3^+ cells were characterized as Treg cells. Flow cytometry data were analyzed by one-way analysis of variance (ANOVA) and Tukey-Kramer HSD multiple comparisons test for percentage of cells falling within each population following treatment. Cells were stained with anti-CD3, anti-CD8 and anti IFNγ to differentiate CD8^+ effectors and CD4^+ Th1 T cell skewing or anti-CD4 and anti-FOXP3 to determine Tregs. To determine if there was a peptide specific effects between the 3 different tumor antigens, viral treatments were pooled for each peptide exposure. Data represent the averages 6 mice per peptide treatment group and 2 mice in the no treatment control group. No significant differences were seen between peptides in the induction of Tregs or CD8^+ effector cells.
(§2) Following peptide loading DCs were left untreated or transduced with one of 3 different adenoviral vectors: 1) Ad5-SHP-1-shRNA; 2) Ad5-scrambled-shRNA; or 3) Ad5-CMV-empty, an adenovirus carrying a CMV promoter expression vector but no insert. Vaccines were injected i.p. into wt C57BL/6 mice and T cell skewing analyzed 7 days later by flow cytometry from total splenocytes. Cells were stained with anti-CD3, anti-CD8 and anti IFNγ for effector and Th1 cells or anti-CD4 and anti-FOXP3 for Tregs. For the peptide specific analysis viral treatments were pooled for each peptide exposure. Data represent the averages 6 mice per peptide treatment and two mice in the no treatment control group. The green diamonds represent the mean and 95% confidence interval for each group from the ANOVA. The black line is the mean of means for the study and red asterisk (*) indicates significant differences (p<0.05 by Tukey-Kramer HSD multiple comparisons test).
as §2, with “the SHP-1” for “the peptide”, “each viral treatment.” for “each peptide exposure.”, “and 2” for “and two”, “ANOVA. […]” for “ANOVA. The black line is the mean of means for the study and red asterisk (*) indicates significant differences (p<0.05 by Tukey-Kramer HSD multiple comparisons test).”

For the next assay, the system named is TRAMP C2 tumors. Nature of the assay: DC vaccination of mice bearing ectopic TRAMP C2 tumors. In kind it is in vivo, C57BL/6 mice. As to conditions: for TRAMP C2 tumor growth (growth curves, mean tumor volumes): by peptide loaded on DC vaccine, single i.p. vaccination 2×10^6 DCs, vs untreated mice; for TRAMP C2 tumor growth rate (mean tumor volume at day 48 post-vaccination, ANOVA): by peptide, pooled across viral treatments, vs no vaccination. On the procedure: BMDCs were prepared as described above, transduced with either Ad5-SHP-1-shRNA or the control Ad5-scrambled-shRNA at 40,000 viral particles/cell, and pulsed with one of the six peptides listed in Table 1 (OVA, an irrelevant epitope to TRAMP 2 tumors, served as a negative control peptide) or a lysate of TRAMP C2 cells as a positive control antigen. 6-8 week C57BL/6 mice, bearing TRAMP C2 tumors (7×10^6 cells injected s.c. on the dorsal flank three days prior to vaccination), were given a single i.p. vaccination with 2×10^6 treated DCs or left untreated. Tumors were measured (length and width using calipers) every 2-4 days until termination of the study and tumor volume was estimated using the formula: Tumor volume (mm3)=x^2y×0.5236, where x is the smaller tumor dimension, and y is the larger tumor dimension. A-G) TRAMP tumor growth curves for vaccines loaded with the indicated peptides. Error bars represent the standard error of the mean of 5 mice vaccinated in each treatment. […] H-I) ANOVA analysis of peptide function and SHP-1 function. Data represent the averages 10 mice per peptide treatment and 5 mice in the no treatment control group for H) and 35 mice per viral transduction treatment and 5 mice in the no treatment control group for I). The green diamonds represent the mean and 95% confidence interval for each group from the ANOVA. The black line is the mean of means for the study and red symbols indicate significant differences (p<0.05 by Tukey-Kramer HSD multiple comparisons test).
To determine if there was a significant difference between the various peptides used in these DC vaccinations, mice were pooled across viral treatments (Ad5-SHP-1 shRNA or Ad5-scrambled-shRNA) employing the same peptide. An ANOVA for differences in mean tumor volume at day 48 post-vaccination (the time at which the majority of the vaccinated tumor growth curves change slope) and Tukey-Kramer HSD multiple comparisons test.
Next experiments were conducted to determine if vaccines transduced with Ad5-SHP-1-shRNA inhibited tumor growth compared to transduction with Ad5-scrambled-shRNA or no vaccine treatment, irrespective of what peptide was used in the vaccine.

The target in another assay is T2, H-2K^b (mouse, UniProt P01887 21-119; P01901 22-305, limits assumed).
T2 construct: whole, on cells;extracellular; MHC class I on RMA-S cells, detected with antibody Y-3 (ATCC-HB176) in a surface stabilization assay; also called MHC class 1 molecule H-2K^b
T2 sequence (MHC heavy, looked up): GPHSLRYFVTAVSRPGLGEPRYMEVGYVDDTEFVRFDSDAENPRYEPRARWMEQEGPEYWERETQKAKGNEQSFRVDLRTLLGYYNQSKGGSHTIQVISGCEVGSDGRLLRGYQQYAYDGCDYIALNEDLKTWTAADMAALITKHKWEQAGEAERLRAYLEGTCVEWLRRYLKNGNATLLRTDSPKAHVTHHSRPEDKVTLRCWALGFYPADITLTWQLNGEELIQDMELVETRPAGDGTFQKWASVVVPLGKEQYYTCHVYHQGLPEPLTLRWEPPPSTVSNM
T2 sequence (b2m, looked up): T1 sequence (P01887 21-119 partner)
Put plainly: RMA-S surface stabilization assay, flow cytometry with antibody Y-3. On the procedure: (§3) 10⁶ RMA-S cells were incubated overnight at 37° C. with each of the five predicted at the concentrations indicated. Cells were stained with antibodies for H-2K^b (Y-3; ATCC-HB176) or H-2D^b (28-14-8S; ATCC-HB27) followed by a goat anti-mouse-FITC second step and MHC class I surface expression was analyzed by flow cytometry. Specific MFI is the mean fluorescent intensity of the sample-mean fluorescent intensity of goat anti-mouse-FITC second step alone. Error bars represent the standard deviation of triplicate measurements. This is representative of 3 separate studies.
as §1, with “cytometry. […] STEAP₈₄₋₉₁ and STEAP₁₈₆₋₁₉₂ bound with an affinity near that of OVA₂₅₈₋₂₆₅, a well characterized strong binding H-2K^b epitope from chicken ovalbumin. […]” for “cytometry.”

Assay [2] addresses T3, H-2D^b (mouse, UniProt P01887 21-119; P01899 25-309).
T3 construct: whole, on cells;extracellular; MHC class I on RMA-S cells, detected with antibody 28-14-8S (ATCC-HB27) in a surface stabilization assay; also called MHC class 1 molecule H-2D^b
T3 sequence (MHC heavy, looked up): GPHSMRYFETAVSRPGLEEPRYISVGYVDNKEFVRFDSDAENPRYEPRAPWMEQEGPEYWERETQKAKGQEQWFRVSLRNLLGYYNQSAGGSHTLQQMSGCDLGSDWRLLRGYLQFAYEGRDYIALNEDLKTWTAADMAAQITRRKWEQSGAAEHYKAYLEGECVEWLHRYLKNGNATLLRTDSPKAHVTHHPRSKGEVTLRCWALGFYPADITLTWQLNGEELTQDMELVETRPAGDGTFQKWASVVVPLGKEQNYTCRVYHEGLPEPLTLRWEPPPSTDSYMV
T3 sequence (b2m, looked up): T1 sequence (P01887 21-119 partner)
Nature of the assay: RMA-S surface stabilization assay, flow cytometry with antibody 28-14-8S. As to the method: as §3
as §1, with “cytometry. […] STEAP₈₄₋₉₁ and STEAP₁₈₆₋₁₉₂ bound with an affinity near that of OVA₂₅₈₋₂₆₅, a well characterized strong binding H-2K^b epitope from chicken ovalbumin. […]” for “cytometry.”

“ca-SHP-1: constitutively active SHP-1 mutant with N-terminal SH2 domain deleted, HA-tagged (SEQ ID NO:9)”: in the assay with AP-1 signaling, the AP-1 signaling result is recorded as “suppressing AP-1 signaling”. LLLGTVHAL [STEAP262-270]: the “relative binding affinity to H-2Db (MHC class I surface expression)” value (“relative binding affinity to H-2Db” for short) on H-2D^b [1] is recorded as “no detectable binding at any peptide concentration”. For SVYDFFVWL [Trp-2, reference compound], the Th1 skewing entry with total splenocytes was “significant”. Take VSKINRTEM [STEAP327-335]: the Th1 skewing entry in the assay with total splenocytes is on record as “significant”. The “relative binding affinity to H-2Db” value with H-2D^b [1] is “did not appear to bind as well as some of the other peptides”. Further, in the assay on TRAMP C2 tumors, the “TRAMP C2 tumor growth (growth curves, mean tumor volumes)” value is given as “strong inhibition of tumor growth” and the “TRAMP C2 tumor growth rate (mean tumor volume at day 48 post-vaccination, ANOVA)” value was “significant decrease in tumor growth rate”. Turning to “SIINFEKL [OVA258-265, reference compound]”, in the assay on TRAMP C2 tumors, the “TRAMP C2 tumor growth (growth curves, mean tumor volumes)” value is reported as “equivalent to mice receiving no vaccine treatment”. For AQMNNRDCL [PSCA29-37], in the assay with H-2D^b [1], the “relative binding affinity to H-2Db” value is “did not appear to bind as well as some of the other peptides”. Besides, in the assay on TRAMP C2 tumors, the “TRAMP C2 tumor growth (growth curves, mean tumor volumes)” value is reported as “strong inhibition of tumor growth” and the “TRAMP C2 tumor growth rate (mean tumor volume at day 48 post-vaccination, ANOVA)” value was “significant decrease in tumor growth rate”.

B1: STEAP84-91 (peptide)
peptide: LTFLYTLL
With B1, the binding result with H-2K^b is given as “binds”.

B2: STEAP327-335 (peptide)
peptide: VSKINRTEM
For the molecule B2, the binding result with H-2D^b [2] is reported as “binds”.

B3: STEAP186-192 (peptide)
peptide: RSYRYKLL
Consider B3, for which, in the assay with H-2K^b, the binding result is “binds”.

B4: PSCA29-37 (peptide)
peptide: AQMNNRDCL
As for B4, the binding result with H-2D^b [2] is reported as “binds”.
